From paper PMC10018501 (ACS Omega, 2023)
Where “and” joins values, the source holds several entries; their conditions need not be identical. Equal entries are not always repeated.

Experiments:
[1] = n = 3, mean ± SEM
malonaldehyde (MDA) = assay: Ex vivo MDA estimation; type: in vivo, rat; conditions: scopolamine-treated rats; SD-6 2.5, 5, 10 mg/kg; donepezil 5 mg/kg
acetylcholine (ACh) = assay: Ex vivo ACh estimation; type: in vivo, rat; conditions: scopolamine-treated rats; SD-6 2.5, 5, 10 mg/kg
glutathione (GSH) = assay: Ex vivo reduced glutathione; type: in vivo, rat; conditions: scopolamine-treated rats; SD-6 2.5, 5, 10 mg/kg; donepezil 5 mg/kg
[2] = test system: nondifferentiated SH-SY5Y cells; assay: Neuroprotective estimation; type: cell-based; conditions: Homo sapiens, 24 h, read-out: cell viability
[3] = test system: scopolamine-induced rat model; assay: Scopolamine-induced Y-maze test; type: in vivo, Wistar rats; conditions: SD-6 2.5, 5, 10 mg/kg p.o.; donepezil 5 mg/kg p.o.; 7 days; vs scopolamine group
catalase = assay: Ex vivo catalase assay; type: in vivo, rat; conditions: scopolamine-treated rats; SD-6 2.5, 5, 10 mg/kg; donepezil 5 mg/kg
[4] = test system: differentiated SH-SY5Y cells; assay: Neurotoxicity estimation; type: cell-based; conditions: 10, 20, 40 and 80 μM, 24 h
female Wistar rats = assay: Acute oral toxicity study; type: in vivo
[5] = test system: superoxide dismutase (SOD); assay: Ex vivo SOD assay; type: in vivo, rat; conditions: scopolamine-treated rats; SD-6 2.5, 5, 10 mg/kg; donepezil 5 mg/kg
[6] = test system: ICV Aβ1–42-induced rat model; assay: Aβ-induced Morris water maze test; conditions: SD-6 10 mg/kg, donepezil 5 mg/kg, orally 9 days; vs Aβ group
hBChE = hBChE (Equus caballus, UniProt P81908); assay: In vitro hBChE inhibition assay; type: biochemical, human
hAChE [7] = target: T1, hAChE (Homo sapiens, UniProt P22303); assay: In vitro hAChE inhibition assay; type: biochemical
hBACE-1 = hBACE-1 (Homo sapiens, UniProt P56817); assay: biochemical; conditions: IC50 ± SEM hBACE-1, n = 3
in vitro = conditions: PAMPA, pH 7.4
AChE = assay: Ex vivo AChE estimation in hippocampal homogenate; set-up: species or system rat; conditions: scopolamine-treated rats; SD-6 2.5, 5, 10 mg/kg
Aβ1–42 = Aβ1–42 (Homo sapiens, UniProt P05067); assay: Self-induced Aβ aggregation inhibition thioflavin T assay; type: biochemical; conditions: compound 5, 10 and 20 μM; Aβ 10 μM
hAChE [8] = target: T1, hAChE; assay: hAChE enzyme kinetics; type: biochemical; conditions: substrate ATCI
[9] = test system: hippocampal brain (dentate gyrus) neurons; assay: Brain tissue histopathology; type: in vivo, rat; conditions: Aβ1–42 rats, SD-6 10 mg/kg, donepezil 5 mg/kg
Aβ1–42 with hAChE = Aβ1–42 with hAChE (Homo sapiens, UniProt P22303); assay: hAChE-induced Aβ aggregation inhibition thioflavin T assay; type: biochemical; conditions: compound 5, 10 and 20 μM; Aβ 10 μM
[10] = target: PAS-AChE (hAChE-PAS region) (Homo sapiens, UniProt P22303); assay: Propidium iodide displacement assay; type: binding
Sequence of PAS-AChE (hAChE-PAS region) (P22303 32-617 isoform P22303-2 limits assumed): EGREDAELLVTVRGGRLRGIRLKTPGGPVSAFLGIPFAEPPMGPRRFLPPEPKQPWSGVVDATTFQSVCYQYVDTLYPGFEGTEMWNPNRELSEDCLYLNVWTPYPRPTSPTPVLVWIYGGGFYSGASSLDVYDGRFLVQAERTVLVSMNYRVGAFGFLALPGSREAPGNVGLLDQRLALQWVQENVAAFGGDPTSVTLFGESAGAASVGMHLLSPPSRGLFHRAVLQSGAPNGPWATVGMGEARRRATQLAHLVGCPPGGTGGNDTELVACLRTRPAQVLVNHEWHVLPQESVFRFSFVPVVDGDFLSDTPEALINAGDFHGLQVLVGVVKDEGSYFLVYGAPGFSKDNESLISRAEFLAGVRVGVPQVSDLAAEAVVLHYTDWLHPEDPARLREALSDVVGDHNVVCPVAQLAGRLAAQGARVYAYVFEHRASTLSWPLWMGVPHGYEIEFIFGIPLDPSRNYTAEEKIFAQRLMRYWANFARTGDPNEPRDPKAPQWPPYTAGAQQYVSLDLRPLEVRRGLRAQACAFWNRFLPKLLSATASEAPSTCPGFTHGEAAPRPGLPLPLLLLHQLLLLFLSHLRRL

T1 sequence (P22303 32-617 isoform P22303-2 limits assumed): as above
Sequence of Aβ1–42 (P05067 672-713): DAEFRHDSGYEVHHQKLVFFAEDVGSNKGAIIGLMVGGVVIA
Sequence of hBACE-1 (P56817 46-501): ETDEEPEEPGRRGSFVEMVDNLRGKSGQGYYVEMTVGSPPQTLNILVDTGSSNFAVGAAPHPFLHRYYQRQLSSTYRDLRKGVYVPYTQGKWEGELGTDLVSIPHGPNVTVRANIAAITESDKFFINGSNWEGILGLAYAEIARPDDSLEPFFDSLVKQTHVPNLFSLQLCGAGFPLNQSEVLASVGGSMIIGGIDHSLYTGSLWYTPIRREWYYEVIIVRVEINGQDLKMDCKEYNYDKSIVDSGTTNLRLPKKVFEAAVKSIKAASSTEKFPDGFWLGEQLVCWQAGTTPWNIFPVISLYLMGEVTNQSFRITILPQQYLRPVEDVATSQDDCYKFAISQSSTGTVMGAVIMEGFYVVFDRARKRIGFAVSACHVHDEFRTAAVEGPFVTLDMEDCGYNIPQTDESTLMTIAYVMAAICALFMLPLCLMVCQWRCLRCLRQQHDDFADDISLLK
Sequence of hBChE (P81908 whole entry): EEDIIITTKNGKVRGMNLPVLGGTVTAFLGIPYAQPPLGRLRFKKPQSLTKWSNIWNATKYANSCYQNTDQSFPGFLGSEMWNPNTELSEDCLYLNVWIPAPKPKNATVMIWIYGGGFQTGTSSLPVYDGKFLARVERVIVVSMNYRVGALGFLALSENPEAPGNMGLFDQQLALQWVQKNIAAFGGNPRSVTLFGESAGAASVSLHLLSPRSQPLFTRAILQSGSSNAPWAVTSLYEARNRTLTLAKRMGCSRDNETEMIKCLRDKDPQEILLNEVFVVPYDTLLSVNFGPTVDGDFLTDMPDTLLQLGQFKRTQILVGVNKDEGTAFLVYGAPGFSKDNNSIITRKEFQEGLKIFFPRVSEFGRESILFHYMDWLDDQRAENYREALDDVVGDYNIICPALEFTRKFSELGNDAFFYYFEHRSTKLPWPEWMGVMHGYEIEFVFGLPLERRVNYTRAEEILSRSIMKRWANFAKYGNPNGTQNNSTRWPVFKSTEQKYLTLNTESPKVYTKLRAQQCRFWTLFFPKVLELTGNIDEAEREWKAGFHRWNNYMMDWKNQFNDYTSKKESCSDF
Sequence of Aβ1–42 with hAChE (P22303 32-588 isoform P22303-2): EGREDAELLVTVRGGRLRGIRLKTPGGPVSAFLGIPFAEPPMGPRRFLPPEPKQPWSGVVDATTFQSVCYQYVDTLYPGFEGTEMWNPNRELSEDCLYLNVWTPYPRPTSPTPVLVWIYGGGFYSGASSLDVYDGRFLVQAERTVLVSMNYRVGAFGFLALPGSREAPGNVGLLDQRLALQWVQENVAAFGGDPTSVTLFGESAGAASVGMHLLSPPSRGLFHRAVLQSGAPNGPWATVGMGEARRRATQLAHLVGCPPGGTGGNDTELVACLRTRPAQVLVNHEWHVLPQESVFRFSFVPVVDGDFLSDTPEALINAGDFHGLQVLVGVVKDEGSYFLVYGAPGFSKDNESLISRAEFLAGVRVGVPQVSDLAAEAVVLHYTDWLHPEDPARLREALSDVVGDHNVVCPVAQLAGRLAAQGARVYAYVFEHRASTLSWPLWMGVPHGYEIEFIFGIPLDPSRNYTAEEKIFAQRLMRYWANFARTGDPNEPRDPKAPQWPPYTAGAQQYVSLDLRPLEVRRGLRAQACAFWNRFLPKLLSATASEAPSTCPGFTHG

In the case of S=c1oc(-c2ccccc2)nn1CN1CCN(Cc2ccccc2)CC1 [SD-6, 3-((4-Benzylpiperazin-1-yl)methyl)-5-phenyl-1,3,4-oxadiazole-2(3H)-thione], the “Pe(exp) PAMPA–BBB” value [1] is reported as 5.643 10^–6 cm/s, the MDA level (malonaldehyde (MDA)) is reported as “declines in MDA” and the ACh brain level (acetylcholine (ACh)) is reported as “dose-dependent increase”. For the same compound, the GSH level (glutathione (GSH)) was “elevation of both the biomarkers”, the viability at 5 µM [2] was 61.4% and the viability at 10 µM [2] was 74%. The viability at 20 µM [2] was 83.6%, the “% spontaneous alterations” value [3] was “significant increase in % spontaneous alterations in a dose-dependent manner” and the catalase activity (catalase) was “elevation of both the biomarkers”. The “neurotoxicity (MTT, cell population and morphology)” value [4] was “non-neurotoxic”, the “weight loss (initial, in some animals)” value (female Wistar rats; 100–500 mg/kg, p.o., regained in 10–12 days) was 12–25% and the “organ histopathology (kidney, liver, lungs, heart; H&E)” value (female Wistar rats; after 14 days) was “normal tissue appearance”. For the same compound, the “hepatic and renal function tests” value (female Wistar rats; blood samples after acute toxicity study) was “within the range”, the SOD level [5] was “elevation of SOD levels” and the “escape latency time (ELT)” value [6] was “significant change as compared to the Aβ group”. The “time spent in the platform zone” value [6] was “significantly (^bp < 0.001) higher”, the “total number of entries to the platform zone” value [6] was “significantly (^bp < 0.001) different from the Aβ-treated animal group” and the IC50 (hBChE) was 1.58 ± 0.037 µM. It also gave an IC50 (hAChE [7]; IC50 ± SEM hAChE, n = 3) of 0.907 ± 0.011 µM, an IC50 (hAChE [7]; hAChE inhibitory activity (good/moderate/poor), class in words) of under 1 µM and an IC50 (hBACE-1) of 0.753 ± 0.018 µM. For the same compound, the Papp (in vitro) was 5.643 ± 0.021 ×10⁻⁶ cm/s, the “AChE level (hippocampal)” value (AChE) was “dose-dependent decrease” and the “% Aβ aggregation inhibition, self-induced” value (Aβ1–42) was 22–69%. For the same compound, the “type of inhibition (Lineweaver–Burk plot)” value (hAChE [8]) was “mixed-type noncompetitive”, the “neuronal morphology (dentate gyrus)” value [9] was “less disordered neuronal arrangement and vacuolar fibrosis” and the “neuronal density (dentate gyrus)” value ([9]; vs Aβ1–42-treated group) was “higher”. The “% Aβ aggregation inhibition, hAChE-induced” value (Aβ1–42 with hAChE) was 41–81%, the “PAS-AChE propidium iodide displacement (%)” value ([10]; [I] = 10 μM) was 27.3% and 27.316 ± 1.208% and the “PAS-AChE propidium iodide displacement (%)” value ([10]; [I] = 50 μM) was 56.2% and 56.238 ± 1.338%.
